Measurements from ChEMBL document CHEMBL4673260, “Pyridine alkaloids with activity in the central nervous system” (Bioorg Med Chem, 2020).

Legend:
[1] = biological target: T1, Neuronal acetylcholine receptor; alpha4/beta2 (Homo sapiens, UniProt P17787+P43681); experiment: Agonist activity at human alpha4beta2 nAChR expressed in Xenopus oocytes; type: cell-based, Oocyte
[2] = biological target: Neuronal acetylcholine receptor; alpha4/beta2 (Rattus norvegicus, UniProt P09483+P12390); experiment: Displacement of [3H]-cytisine from rat brain membrane alpha4beta2 nAChR; type: cell membranes
Chain of Neuronal acetylcholine receptor; alpha4/beta2 (Rattus norvegicus, UniProt P09483+P12390) (P09483 whole entry): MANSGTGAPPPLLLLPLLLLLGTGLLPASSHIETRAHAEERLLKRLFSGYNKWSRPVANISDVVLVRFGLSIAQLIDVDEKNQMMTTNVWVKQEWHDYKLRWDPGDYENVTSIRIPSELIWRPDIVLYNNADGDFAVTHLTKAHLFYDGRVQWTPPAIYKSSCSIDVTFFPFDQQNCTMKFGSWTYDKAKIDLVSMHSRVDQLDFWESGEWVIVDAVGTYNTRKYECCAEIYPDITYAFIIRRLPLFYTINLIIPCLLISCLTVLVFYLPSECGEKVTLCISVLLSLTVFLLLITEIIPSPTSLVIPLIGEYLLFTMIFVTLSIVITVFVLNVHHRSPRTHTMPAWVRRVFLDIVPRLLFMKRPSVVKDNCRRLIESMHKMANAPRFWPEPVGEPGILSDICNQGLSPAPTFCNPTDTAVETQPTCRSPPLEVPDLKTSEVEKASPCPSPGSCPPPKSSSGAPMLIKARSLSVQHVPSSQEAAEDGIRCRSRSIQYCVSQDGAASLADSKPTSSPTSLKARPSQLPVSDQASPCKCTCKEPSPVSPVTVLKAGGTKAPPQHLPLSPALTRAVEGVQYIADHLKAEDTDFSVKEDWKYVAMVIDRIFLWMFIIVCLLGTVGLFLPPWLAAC
Chain of Neuronal acetylcholine receptor; alpha4/beta2 (Rattus norvegicus, UniProt P09483+P12390) (P12390 whole entry): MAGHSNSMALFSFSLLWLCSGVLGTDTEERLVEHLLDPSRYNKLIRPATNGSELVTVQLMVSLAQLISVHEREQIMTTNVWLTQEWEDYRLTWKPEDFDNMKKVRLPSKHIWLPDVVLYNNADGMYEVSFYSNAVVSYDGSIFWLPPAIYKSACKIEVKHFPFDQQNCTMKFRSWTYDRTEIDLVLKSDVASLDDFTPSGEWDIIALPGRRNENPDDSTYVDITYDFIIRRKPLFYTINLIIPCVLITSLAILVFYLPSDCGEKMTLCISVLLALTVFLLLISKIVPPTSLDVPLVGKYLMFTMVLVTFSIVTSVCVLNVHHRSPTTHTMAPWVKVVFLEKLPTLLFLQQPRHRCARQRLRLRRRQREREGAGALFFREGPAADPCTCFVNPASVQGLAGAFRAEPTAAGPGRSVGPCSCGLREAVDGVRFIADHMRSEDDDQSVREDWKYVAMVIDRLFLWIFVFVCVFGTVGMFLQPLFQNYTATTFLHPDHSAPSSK

[3] = biological target: T1, Neuronal acetylcholine receptor; alpha4/beta2; experiment: Agonist activity at human alpha4beta2 nAChR expressed in Xenopus oocytes relative to control; type: cell-based; conditions: Oocyte, filed as agonist
[4] = biological target: T2, Muscarinic acetylcholine receptor M2 (Rattus norvegicus, UniProt P10980); experiment: Inhibition of [3H]-methyl-quinuclidinyl benzilate binding to rat heart muscarinic M2 receptor by radioligand binding assay
T2 sequence (P10980 whole entry): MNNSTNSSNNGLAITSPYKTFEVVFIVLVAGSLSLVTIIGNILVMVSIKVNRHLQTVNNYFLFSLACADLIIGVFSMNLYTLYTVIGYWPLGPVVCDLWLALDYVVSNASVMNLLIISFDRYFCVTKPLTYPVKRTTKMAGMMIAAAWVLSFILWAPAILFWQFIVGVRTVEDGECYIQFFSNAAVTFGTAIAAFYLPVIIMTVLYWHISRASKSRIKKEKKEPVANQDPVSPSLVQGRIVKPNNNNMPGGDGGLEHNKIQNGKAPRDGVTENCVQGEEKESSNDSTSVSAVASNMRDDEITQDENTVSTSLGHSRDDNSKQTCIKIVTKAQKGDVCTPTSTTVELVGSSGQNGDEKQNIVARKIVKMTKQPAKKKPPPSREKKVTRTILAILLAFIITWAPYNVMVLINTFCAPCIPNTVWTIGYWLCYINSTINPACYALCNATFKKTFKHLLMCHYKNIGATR

[5] = biological target: Muscarinic acetylcholine receptor M3 (Rattus norvegicus, UniProt P08483); experiment: Inhibition of [3H]-methyl-quinuclidinyl benzilate binding to rat salivary gland muscarinic M3 receptor by radioligand binding assay
Chain of Muscarinic acetylcholine receptor M3 (P08483 whole entry): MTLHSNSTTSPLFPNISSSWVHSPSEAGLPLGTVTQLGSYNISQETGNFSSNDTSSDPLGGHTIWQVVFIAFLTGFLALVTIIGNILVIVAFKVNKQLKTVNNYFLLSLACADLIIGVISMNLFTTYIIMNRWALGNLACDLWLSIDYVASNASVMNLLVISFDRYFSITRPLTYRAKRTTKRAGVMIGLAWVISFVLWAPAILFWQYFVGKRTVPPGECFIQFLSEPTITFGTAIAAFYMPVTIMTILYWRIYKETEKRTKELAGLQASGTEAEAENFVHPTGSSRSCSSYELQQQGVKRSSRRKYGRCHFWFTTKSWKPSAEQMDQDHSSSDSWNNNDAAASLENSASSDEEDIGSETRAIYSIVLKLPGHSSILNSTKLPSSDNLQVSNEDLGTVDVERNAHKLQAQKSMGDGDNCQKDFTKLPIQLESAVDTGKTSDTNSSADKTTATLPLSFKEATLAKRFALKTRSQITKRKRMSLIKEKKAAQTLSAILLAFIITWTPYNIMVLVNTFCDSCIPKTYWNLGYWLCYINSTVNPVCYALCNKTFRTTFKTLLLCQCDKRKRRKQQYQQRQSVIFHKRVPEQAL

[6] = biological target: T3, Muscarinic acetylcholine receptor M1 (Rattus norvegicus, UniProt P08482); experiment: Inhibition of [3H]-methyl-quinuclidinyl benzilate binding to rat brain muscarinic M1 receptor by radioligand binding assay
T3 sequence (P08482 whole entry): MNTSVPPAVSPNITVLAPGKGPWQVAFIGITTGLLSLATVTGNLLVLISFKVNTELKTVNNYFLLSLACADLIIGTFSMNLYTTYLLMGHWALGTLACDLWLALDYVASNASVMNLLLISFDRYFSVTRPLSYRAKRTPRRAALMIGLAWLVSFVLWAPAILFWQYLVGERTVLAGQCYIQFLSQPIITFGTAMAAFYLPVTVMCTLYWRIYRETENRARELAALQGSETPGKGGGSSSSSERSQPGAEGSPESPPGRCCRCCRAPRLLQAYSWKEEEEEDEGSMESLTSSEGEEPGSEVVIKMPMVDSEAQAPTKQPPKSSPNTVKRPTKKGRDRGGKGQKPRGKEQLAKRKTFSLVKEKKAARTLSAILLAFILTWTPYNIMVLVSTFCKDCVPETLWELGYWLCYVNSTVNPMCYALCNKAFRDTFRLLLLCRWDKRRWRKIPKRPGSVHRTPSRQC

Acetylcholinesterase [7] = biological target: T4, Acetylcholinesterase (Homo sapiens, UniProt P22303)
T4 sequence (P22303 whole entry): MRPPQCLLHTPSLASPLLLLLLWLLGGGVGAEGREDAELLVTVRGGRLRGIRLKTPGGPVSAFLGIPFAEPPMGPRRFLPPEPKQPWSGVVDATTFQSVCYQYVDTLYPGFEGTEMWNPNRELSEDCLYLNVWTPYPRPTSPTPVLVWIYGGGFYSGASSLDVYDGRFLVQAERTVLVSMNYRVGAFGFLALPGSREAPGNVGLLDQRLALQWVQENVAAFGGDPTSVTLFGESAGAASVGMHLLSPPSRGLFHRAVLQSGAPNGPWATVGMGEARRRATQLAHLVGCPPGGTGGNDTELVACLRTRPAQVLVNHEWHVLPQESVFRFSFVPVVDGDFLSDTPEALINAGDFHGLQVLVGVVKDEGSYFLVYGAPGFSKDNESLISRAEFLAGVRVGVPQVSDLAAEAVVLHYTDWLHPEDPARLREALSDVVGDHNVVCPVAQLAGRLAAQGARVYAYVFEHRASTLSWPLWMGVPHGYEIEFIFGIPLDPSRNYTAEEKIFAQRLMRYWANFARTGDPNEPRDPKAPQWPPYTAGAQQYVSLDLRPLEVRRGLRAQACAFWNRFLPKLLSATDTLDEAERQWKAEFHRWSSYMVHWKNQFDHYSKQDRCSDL

Rattus norvegicus = organism: Rattus norvegicus; experiment: Agonist activity at nAChR in rat striatal synaptosomes assessed as [3H]dopamine release relative to tetramethylammonium; type: subcellular; conditions: Striatum, filed as agonist
[8] = Toxicity in iv dosed Swiss-Webster mouse by up-and-down method; type: organism-based; conditions: in vivo
[9] = biological target: T5, Neuronal acetylcholine receptor subunit alpha-7 (Rattus norvegicus, UniProt Q05941); experiment: Displacement of 125I-alpha-bungarotoxin from rat brain alpha7 nAChR by radioligand binding assay
T5 sequence (Q05941 whole entry): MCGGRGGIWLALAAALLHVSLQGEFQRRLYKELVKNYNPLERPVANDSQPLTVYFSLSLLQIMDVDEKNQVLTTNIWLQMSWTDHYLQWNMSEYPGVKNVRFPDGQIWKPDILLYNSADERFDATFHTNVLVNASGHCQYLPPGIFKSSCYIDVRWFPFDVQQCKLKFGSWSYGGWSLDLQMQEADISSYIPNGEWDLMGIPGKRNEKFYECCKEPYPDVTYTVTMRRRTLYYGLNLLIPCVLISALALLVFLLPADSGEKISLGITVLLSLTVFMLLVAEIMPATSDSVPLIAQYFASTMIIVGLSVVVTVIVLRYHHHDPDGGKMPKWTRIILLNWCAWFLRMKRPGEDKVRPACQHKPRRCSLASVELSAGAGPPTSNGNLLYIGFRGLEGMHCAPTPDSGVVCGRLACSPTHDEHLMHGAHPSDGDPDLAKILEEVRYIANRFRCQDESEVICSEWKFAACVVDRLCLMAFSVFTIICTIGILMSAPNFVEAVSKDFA

[10] = Neurotoxicity in ip dosed mouse assessed as mouse death; type: toxicity, organism-based; conditions: in vivo
[11] = Neurotoxicity in ip dosed mouse assessed as induction of hindlimb tonic extension; type: toxicity, organism-based; conditions: in vivo
[12] = Neurotoxicity in ip dosed mouse assessed as induction of epileptic convulsion; type: toxicity, organism-based; conditions: in vivo
Mus musculus = organism: Mus musculus; experiment: animal or person
Description: Antinociceptive activity in naloxone treated mouse assessed as induction of Straub-tail response

[13] = biological target: T6, Neuronal acetylcholine receptor; alpha4/beta2 (Rattus norvegicus) (UniProt P09483+P12390); experiment: Agonist activity at rat alpha4beta2 expressed in Xenopus oocytes assessed as peak activation at 100 uM relative to control; type: cell-based; conditions: Oocyte, filed as agonist
Acetylcholinesterase [14] = biological target: T4, Acetylcholinesterase; experiment: Inhibition of acetylcholinesterase (unknown origin) using acetylthiocholine iodide as substrate incubated for 30 mins by Ellman's coupled enzyme assay
[15] = biological target: T1, Neuronal acetylcholine receptor; alpha4/beta2
Description: Displacement of [3H]cytisine from human alpha4beta2 nAChR by radioligand competition analysis

[16] = biological target: T1, Neuronal acetylcholine receptor; alpha4/beta2; remark: listed apart in the source
Description: Displacement of [3H]cytisine from human alpha4beta2 nAChR by Cheng-Prusoff equation analysis

[17] = Induction of neurotoxicity in cray fish measured after 24 hrs; conditions: procambarus clarkii
[18] = biological target: T7, Muscarinic acetylcholine receptor M1 (Rattus norvegicus) (UniProt P08482); conditions: filed as antagonist, time 60.0 min
T7 sequence (whole entry): T3 sequence (P08482 whole entry)

[19] = biological target: T7, Muscarinic acetylcholine receptor M1 (Rattus norvegicus); conditions: filed as antagonist, time 40.0 min
[20] = Displacement of [3H]-(-)-nicotine from rat cerebral cortex nAChR incubated for 60 mins by liquid scintillation spectrometry
[21] = biological target: T6, Neuronal acetylcholine receptor; alpha4/beta2 (Rattus norvegicus); experiment: Agonist activity at alpha4beta2 nAChR in rat thalamic synaptosomes assessed as 86Rb efflux relative to tetramethylammonium; type: subcellular; conditions: Thalamus, filed as agonist
[22] = biological target: Neuronal acetylcholine receptor subunit alpha-7 (Homo sapiens, UniProt P36544); conditions: filed as agonist
Chain of Neuronal acetylcholine receptor subunit alpha-7 (Homo sapiens, UniProt P36544) (P36544 whole entry): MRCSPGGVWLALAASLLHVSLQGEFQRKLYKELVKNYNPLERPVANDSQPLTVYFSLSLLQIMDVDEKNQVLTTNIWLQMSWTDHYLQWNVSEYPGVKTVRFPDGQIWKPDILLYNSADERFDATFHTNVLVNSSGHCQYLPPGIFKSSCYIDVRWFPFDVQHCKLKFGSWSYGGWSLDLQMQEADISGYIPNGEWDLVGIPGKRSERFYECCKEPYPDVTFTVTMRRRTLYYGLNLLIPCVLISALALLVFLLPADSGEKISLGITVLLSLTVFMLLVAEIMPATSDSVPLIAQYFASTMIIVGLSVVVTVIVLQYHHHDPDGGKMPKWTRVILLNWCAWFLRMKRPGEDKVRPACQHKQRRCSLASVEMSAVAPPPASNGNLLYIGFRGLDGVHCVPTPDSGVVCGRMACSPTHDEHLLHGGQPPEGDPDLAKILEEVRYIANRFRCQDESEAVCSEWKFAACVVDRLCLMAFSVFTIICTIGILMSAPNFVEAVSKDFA
Description: Agonist activity at human alpha7 nAChR (unknown origin)

[23] = biological target: T1, Neuronal acetylcholine receptor; alpha4/beta2; experiment: Agonist activity at human brain alpha4beta2 nAChR expressed in CHO cells assessed as maximal receptor response by patch clamp electrophysiological assay relative to control; type: cell-based; conditions: filed as agonist
[24] = biological target: Neuronal acetylcholine receptor; alpha3/beta4 (Homo sapiens) (UniProt P30926+P32297); experiment: Agonist activity at human alpha3beta4 nAChR expressed in mouse/rat hybrid F11 cells assessed as increase in rubidium-86 efflux; type: cell-based; conditions: filed as agonist
Torpedo = experiment: Agonist activity at Torpedo alpha1beta1deltagamma nACHR; conditions: filed as agonist
[25] = biological target: T5, Neuronal acetylcholine receptor subunit alpha-7
Description: Displacement of [3H]MLA from rat alpha7 nAChR by liquid scintillation counting

T1 sequence (P17787 whole entry): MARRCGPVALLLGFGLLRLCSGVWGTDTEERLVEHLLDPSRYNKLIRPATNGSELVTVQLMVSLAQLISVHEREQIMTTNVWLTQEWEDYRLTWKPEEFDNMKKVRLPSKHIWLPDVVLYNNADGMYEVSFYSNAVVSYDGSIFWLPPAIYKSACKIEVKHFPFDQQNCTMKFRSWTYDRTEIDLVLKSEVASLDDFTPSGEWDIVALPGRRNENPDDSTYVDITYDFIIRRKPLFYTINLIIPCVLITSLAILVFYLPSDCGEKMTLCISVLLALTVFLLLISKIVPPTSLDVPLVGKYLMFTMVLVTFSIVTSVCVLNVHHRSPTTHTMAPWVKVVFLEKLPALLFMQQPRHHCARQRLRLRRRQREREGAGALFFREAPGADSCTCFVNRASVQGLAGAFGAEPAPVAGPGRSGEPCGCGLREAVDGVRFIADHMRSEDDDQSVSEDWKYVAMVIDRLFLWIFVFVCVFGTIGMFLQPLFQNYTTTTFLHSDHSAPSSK
T1 sequence (P43681 whole entry): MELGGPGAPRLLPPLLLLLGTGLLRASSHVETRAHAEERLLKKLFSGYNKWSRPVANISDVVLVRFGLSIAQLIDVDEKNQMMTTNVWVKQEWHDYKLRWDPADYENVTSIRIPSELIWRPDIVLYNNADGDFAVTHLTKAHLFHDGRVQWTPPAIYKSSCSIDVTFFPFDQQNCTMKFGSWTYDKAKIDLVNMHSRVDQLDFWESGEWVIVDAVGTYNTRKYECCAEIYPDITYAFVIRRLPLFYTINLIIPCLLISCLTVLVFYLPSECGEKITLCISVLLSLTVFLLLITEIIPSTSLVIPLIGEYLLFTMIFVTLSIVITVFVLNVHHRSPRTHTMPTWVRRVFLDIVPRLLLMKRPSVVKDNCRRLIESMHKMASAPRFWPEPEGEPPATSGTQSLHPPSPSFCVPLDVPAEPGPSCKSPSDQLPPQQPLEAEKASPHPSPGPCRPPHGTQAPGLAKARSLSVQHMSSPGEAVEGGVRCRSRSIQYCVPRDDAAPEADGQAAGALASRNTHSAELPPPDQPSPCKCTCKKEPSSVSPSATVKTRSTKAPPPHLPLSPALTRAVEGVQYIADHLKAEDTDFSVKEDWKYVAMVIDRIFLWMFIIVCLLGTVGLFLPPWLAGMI

C1=C[C@H](c2cccnc2)NCC1
EC50 [1]: 0.31 µM | Ki [2]: 0.136 µM | Imax [3]: 102%

c1cc2c[n+](c1)CCCCCCCCCCCCCCc1ccc[n+](c1)CCCCCCCCCCCCCC2
IC50 [4]: 194 µM | IC50 [5]: 612 µM | IC50 [6]: 470 µM

CCCCCCCCCCCCCCCCc1c(C(=O)[O-])ccc[n+]1C
IC50 (Acetylcholinesterase [7]): 2100 µM

C1=C[C@@H](c2cccnc2)NCC1
EC50 [1]: 1.01 µM | Ki [2]: 0.108 µM | Imax [3]: 78.7%

Cc1cc([C@@H]2CCCN2C)on1
Emax (Rattus norvegicus): 91%

CCCCCCCCCCCCCCCCc1cc[n+](C)cc1C(=O)[O-]
IC50 (Acetylcholinesterase [7]): 2600 µM

c1cncc([C@H]2CCCCN2)c1
LD50 [8]: 11 mg/kg | Ki [9]: 3.7 µM

O=C(O)C[C@@H]1[C@@H](C(=O)O)NC[C@@H]1c1ccc(=O)[nH]c1
LD [10]: 10 mg/kg | LD [11]: 10 mg/kg | LD [12]: 10 mg/kg

c1cc2c[n+](c1)CCCCCCCCCCCCCc1ccc[n+](c1)CCCCCCCCCCCC2
IC50 [4]: 42.3 µM | IC50 [5]: 149 µM | IC50 [6]: 111 µM

CN1CC[C@]23c4c5ccc(O)c4O[C@H]2[C@@H](O)C=C[C@H]3[C@H]1C5 [MORPHINE]
ED50 (Mus musculus): 10 mg/kg

CC(=O)OCC[N+](C)(C)C
Activity [13]: 242%

C[C@@H]1CC[C@H]2[C@H](C(=O)c3c(O)c([C@@]4(O)CC[C@@H](O)[C@H]5O[C@H]54)cn(O)c3=O)[C@H](C)C=C[C@@H]2C1
IC50 (Acetylcholinesterase [14]): 39 µM

CO[C@]1(c2cn(O)c(=O)c(C(=O)[C@H]3[C@@H]4CC[C@@H](C)C[C@H]4C=C[C@H]3C)c2O)CC[C@@H](O)[C@H]2O[C@H]21
IC50 (Acetylcholinesterase [14]): 0.81 µM

c1cc2c[n+](c1)CCCCCCCCCCCCCc1ccc[n+](c1)CCCCCCCCCCCCC2
IC50 [4]: 72.3 µM | IC50 [5]: 193 µM | IC50 [6]: 162 µM

C[C@@H]1CC2NCC3c4cccc(=O)n4CC2C31 (stereo partly specified)
IC50 [15]: 0.0048 µM | Ki [16]: 0.0016 µM

O=C(O)C[C@@H]1[C@@H](C(=O)O)NC[C@@H]1c1ccc(=O)[nH]c1C(=O)O
LD [10]: 8 mg/kg | LD [11]: 8 mg/kg | LD [12]: 8 mg/kg

c1cncc(-c2cc(-c3cccnc3-c3cccnc3)ccn2)c1
LD50 [17]: > 240 µg

CN1CC2c3cccc(=O)n3CC3C2[C@H](CO)CC31 (stereo partly specified)
IC50 [15]: 0.0039 µM | Ki [16]: 0.0013 µM

C[N+](C)(C)CCOC(N)=O
Kapp [18]: 22 µM | Kapp [19]: 0.0049 µM

Clc1ccc(C2CC3CCC2N3)cn1 (stereo in doubt; (-)) [EPIBATIDINE]
IC50 [20]: 0.00024 µM

CN1CCC[C@H]1c1cccnc1
Emax (Rattus norvegicus): 113% | Emax [21]: 87% | ED50 [22]: 40 µM | Imax [23]: 159% | ED50 [24]: 14 µM | Activity [13]: 333% | ED50 (Torpedo): 250 µM

C[C@@H]1CC[C@H]2[C@H](C(=O)c3c4c(cn(O)c3=O)[C@@]3(O)CC[C@H](O)[C@H](O4)[C@@H]3O)[C@H](C)C=C[C@@H]2C1
IC50 (Acetylcholinesterase [14]): 47 µM

CCCCCCCCCCCCCCCCc1ccc(C(=O)[O-])c[n+]1C
IC50 (Acetylcholinesterase [7]): 2800 µM

Clc1ccc(C2CC3CCC2N3)cn1 (stereo in doubt; (-))
Kapp [18]: 16 µM | Kapp [19]: 1.4 µM

C[C@@H]1CC2N(C)CC3c4cccc(=O)n4CC2(O)C31 (stereo partly specified)
IC50 [15]: 0.26 µM | Ki [16]: 0.088 µM

O=c1cccc2n1C[C@@H]1CNC[C@H]2C1 [CYTISINICLINE]
Ki [16]: 0.00028 µM | Ki [25]: 1.7 µM

c1cc2c[n+](c1)CCCCCCCCCCCCCCc1ccc[n+](c1)CCCCCCCCCCCCC2
IC50 [4]: 175 µM | IC50 [5]: 338 µM | IC50 [6]: 279 µM

c1ccc(-c2cccnc2)nc1 [[2,3'']Bipyridinyl]
LD50 [17]: 94 µg

c1cc2c[n+](c1)CCCCCCCCCCCCc1ccc[n+](c1)CCCCCCCCCCCC2
IC50 [4]: 36.2 µM | IC50 [5]: 98.8 µM | IC50 [6]: 94.6 µM

c1cc2c[n+](c1)CCCCCCCCCCCCCCc1ccc[n+](c1)CCCCCCCCCCCC2
IC50 [4]: 79 µM | IC50 [5]: 282 µM | IC50 [6]: 233 µM

O=C(O)C[C@@H]1[C@@H](C(=O)O)NC[C@@H]1c1ccc(C(=O)O)[nH]c1=O
LD [10]: 7 mg/kg | LD [11]: 7 mg/kg | LD [12]: 7 mg/kg
